Values joined by “and” are separate entries in the source; they are usually repeats but may differ in a detail not shown here. Identical values can stand only once.
Assays:
[1] = LC-HRMS analysis, enzymatic assay buffer + probe without enzyme; settings: 1 h
Procedure: These analyses were carried out by using UPLC-HRMS procedure with Vanquish UPLC system coupled to a Thermo Scientific Q-Exactive Plus, operating in negative electrospray ionization mode. The chromatographic separation was carried out using a Phenomenex Synergi 4 µ Polar-RP 80 A (150 × 2 mm) equipped with a Phenomenex Polar-RP (4 mm × 2 mm) security guard column. The mobile phase consisted of A: acetonitrile 0.1% formic acid and B: 0.1% formic acid. We used a linear elution gradient, starting from 80% of A to 5% A in 3 min, 3 min at 5% A, an equilibration of 4 min for a total run time of 10.00 min, at 300 µl/min flow rate. The autosampler temperature was set at 15 °C, the injection volume was 5 µl and column was maintained at 40 °C. […] Before injecting the samples, the blanks in the list were analyzed and every biological sample was analyzed in duplicate. The biological samples analyzed were as follow: (1) Enzymatic assay Buffer; (2) Enzymatic assay Buffer + NAD^+; (3) Enzymatic assay Buffer + Probe 10 or Probe 11; (4) Enzymatic assay Buffer + ALDH1A1; (5) Enzymatic assay Buffer + ALDH1A2; (6) Enzymatic assay Buffer + ALDH1A3; (7) Enzymatic assay Buffer + ALDH1A1 + Probe 10 or Probe 11; (8) Enzymatic assay Buffer + ALDH1A2 + Probe 10 or Probe 11; (9) Enzymatic assay Buffer + ALDH1A3 + Probe 10 or Probe 11. […]

[2] = molecular target: T1, ALDH1A2 (Homo sapiens, UniProt O94788); test: LC-HRMS analysis of isoenzyme activity in presence of probe; type: biochemical; settings: ALDH1A2, 1 h
T1 construct: E. coli BL21 (DE3) were transformed with the full-length expression vector of each isoform; His-tag; made in house; host or cells: E. coli BL21 (DE3)
T1 sequence (O94788 1-518): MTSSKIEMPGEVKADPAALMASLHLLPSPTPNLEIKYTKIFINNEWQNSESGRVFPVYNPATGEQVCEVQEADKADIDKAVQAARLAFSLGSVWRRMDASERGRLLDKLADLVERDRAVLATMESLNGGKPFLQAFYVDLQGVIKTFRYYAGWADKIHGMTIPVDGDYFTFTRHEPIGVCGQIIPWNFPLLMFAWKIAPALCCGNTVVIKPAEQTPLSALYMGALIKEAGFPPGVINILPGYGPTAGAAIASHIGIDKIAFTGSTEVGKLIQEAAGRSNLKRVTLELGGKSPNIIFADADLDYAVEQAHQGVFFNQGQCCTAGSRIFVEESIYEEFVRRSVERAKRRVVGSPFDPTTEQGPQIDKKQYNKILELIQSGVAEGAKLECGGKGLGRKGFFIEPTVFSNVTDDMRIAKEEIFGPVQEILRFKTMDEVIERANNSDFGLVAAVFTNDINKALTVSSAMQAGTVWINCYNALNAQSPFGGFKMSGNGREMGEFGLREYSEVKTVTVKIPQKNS
Procedure: (§1) These analyses were carried out by using UPLC-HRMS procedure with Vanquish UPLC system coupled to a Thermo Scientific Q-Exactive Plus, operating in negative electrospray ionization mode. The chromatographic separation was carried out using a Phenomenex Synergi 4 µ Polar-RP 80 A (150 × 2 mm) equipped with a Phenomenex Polar-RP (4 mm × 2 mm) security guard column. The mobile phase consisted of A: acetonitrile 0.1% formic acid and B: 0.1% formic acid. We used a linear elution gradient, starting from 80% of A to 5% A in 3 min, 3 min at 5% A, an equilibration of 4 min for a total run time of 10.00 min, at 300 µl/min flow rate. The autosampler temperature was set at 15 °C, the injection volume was 5 µl and column was maintained at 40 °C. The heated electrospray ionization source was used, with a spray voltage of […], with a capillary temperature of 300 °C, a heater temperature of 350 °C, a sheat gas flow of 45 arbitrary units (AU), an auxiliary gas flow of 10 AU and a sweep gas flow of 0 AU. During the Parallel Reaction Monitoring acquisition in negative ion mode, the instrument operated at 17,500 resolution in presence of the inclusion list (m/z = 596.20384 and m/z = 612.19875 for Probe 10 and Probe 10-COOH respectively; m/z = 534.18819 and m/z = 506.156888 for Probe 11 and Probe 11-COOH respectively) with an automatic gain control target of 2 × 10^5 charges and a maximum injection time of 100 ms. Before injecting the samples, the blanks in the list were analyzed and every biological sample was analyzed in duplicate. The biological samples analyzed were as follow: (1) Enzymatic assay Buffer; (2) Enzymatic assay Buffer + NAD^+; (3) Enzymatic assay Buffer + Probe 10 or Probe 11; (4) Enzymatic assay Buffer + ALDH1A1; (5) Enzymatic assay Buffer + ALDH1A2; (6) Enzymatic assay Buffer + ALDH1A3; (7) Enzymatic assay Buffer + ALDH1A1 + Probe 10 or Probe 11; (8) Enzymatic assay Buffer + ALDH1A2 + Probe 10 or Probe 11; (9) Enzymatic assay Buffer + ALDH1A3 + Probe 10 or Probe 11. All samples were diluted 1:1 with ACN, then 1:100 in ACN-Water 1:1 prior the LC-HRMS analysis.

[3] = molecular target: T2, ALDH1A1 (Homo sapiens, UniProt P00352); test: as above; type: biochemical; settings: ALDH1A1, 1 h
T2 construct: E. coli BL21 (DE3) were transformed with the full-length expression vector of each isoform; His-tag; made in house; host or cells: E. coli BL21 (DE3)
T2 sequence (P00352 1-501): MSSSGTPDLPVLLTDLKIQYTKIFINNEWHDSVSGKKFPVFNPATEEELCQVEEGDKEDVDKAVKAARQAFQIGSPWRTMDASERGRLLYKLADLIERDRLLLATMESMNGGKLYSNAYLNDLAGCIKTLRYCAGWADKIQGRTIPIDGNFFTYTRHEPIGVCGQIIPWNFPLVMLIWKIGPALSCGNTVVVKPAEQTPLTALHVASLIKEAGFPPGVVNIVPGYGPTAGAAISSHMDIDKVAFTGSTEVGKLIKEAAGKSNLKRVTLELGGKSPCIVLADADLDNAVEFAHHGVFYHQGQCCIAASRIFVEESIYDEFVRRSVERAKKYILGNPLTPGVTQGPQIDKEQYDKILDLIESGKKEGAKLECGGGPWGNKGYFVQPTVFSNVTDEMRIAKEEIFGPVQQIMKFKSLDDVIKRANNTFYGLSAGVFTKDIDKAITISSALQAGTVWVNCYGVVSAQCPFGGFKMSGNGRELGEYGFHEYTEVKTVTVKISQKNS
Procedure: as §1

[4] = substrate: COc1cc(/C=C/C(O)=C/C(=O)/C=C/c2ccc(OCc3cn(CCOc4ccc(C=O)cc4)nn3)c(OC)c2)ccc1O; test: KM evaluation, probe as substrate (NADH absorbance 340 nm); type: biochemical, human; settings: other: probe as substrate; pH 8.0; 25.0 °C
Procedure: The catalytic activity of the ALDH1As isoenzymes in complex with probe 10 was tested on a Tecan Sunrise 96 Multiplate Reader with Greiner Bio-One 96-UV-Transparent Microplates. […] Each reaction mix was preincubated for 10 min at 25 °C before the analysis. The catalytic activity was measured by monitoring the absorbance at 340 nm (εNADH = 6220 M^−1 cm^−1) for 12 h at 25 °C and the inhibitory parameters were calculated by processing the raw data on GraphPad.

Row | Molecule | AREA TIC of Probe 10-COOH formed from Probe 10 [1] | AREA TIC of Probe 10-COOH formed from Probe 10 [2] | AREA TIC of Probe 10-COOH formed from Probe 10 [3] | Km [4]
1 | COc1cc(/C=C/C(O)=C/C(=O)/C=C/c2ccc(OCc3cn(CCOc4ccc(C(=O)O)cc4)nn3)c(OC)c2)ccc1O [Probe 10-COOH] | 0 | 18647884 and 19590595 and 21767211 and 22597746 | 26353656 and 30637066 and 18030552 and 17027138 | 
2 | ALDH1A1 (Homo sapiens) (protein, E. coli BL21 (DE3) were transformed with the full-length expression vector of each isoform; His-tag; made in house; host or cells: E. coli BL21 (DE3)) MSSSGTPDLPVLLTDLKIQYTKIFINNEWHDSVSGKKFPVFNPATEEELCQVEEGDKEDVDKAVKAARQAFQIGSPWRTMDASERGRLLYKLADLIERDRLLLATMESMNGGKLYSNAYLNDLAGCIKTLRYCAGWADKIQGRTIPIDGNFFTYTRHEPIGVCGQIIPWNFPLVMLIWKIGPALSCGNTVVVKPAEQTPLTALHVASLIKEAGFPPGVVNIVPGYGPTAGAAISSHMDIDKVAFTGSTEVGKLIKEAAGKSNLKRVTLELGGKSPCIVLADADLDNAVEFAHHGVFYHQGQCCIAASRIFVEESIYDEFVRRSVERAKKYILGNPLTPGVTQGPQIDKEQYDKILDLIESGKKEGAKLECGGGPWGNKGYFVQPTVFSNVTDEMRIAKEEIFGPVQQIMKFKSLDDVIKRANNTFYGLSAGVFTKDIDKAITISSALQAGTVWVNCYGVVSAQCPFGGFKMSGNGRELGEYGFHEYTEVKTVTVKISQKNS |  |  |  | 255.2 µM
3 | ALDH1A2 (Homo sapiens) (protein, E. coli BL21 (DE3) were transformed with the full-length expression vector of each isoform; His-tag; made in house; host or cells: E. coli BL21 (DE3)) MTSSKIEMPGEVKADPAALMASLHLLPSPTPNLEIKYTKIFINNEWQNSESGRVFPVYNPATGEQVCEVQEADKADIDKAVQAARLAFSLGSVWRRMDASERGRLLDKLADLVERDRAVLATMESLNGGKPFLQAFYVDLQGVIKTFRYYAGWADKIHGMTIPVDGDYFTFTRHEPIGVCGQIIPWNFPLLMFAWKIAPALCCGNTVVIKPAEQTPLSALYMGALIKEAGFPPGVINILPGYGPTAGAAIASHIGIDKIAFTGSTEVGKLIQEAAGRSNLKRVTLELGGKSPNIIFADADLDYAVEQAHQGVFFNQGQCCTAGSRIFVEESIYEEFVRRSVERAKRRVVGSPFDPTTEQGPQIDKKQYNKILELIQSGVAEGAKLECGGKGLGRKGFFIEPTVFSNVTDDMRIAKEEIFGPVQEILRFKTMDEVIERANNSDFGLVAAVFTNDINKALTVSSAMQAGTVWINCYNALNAQSPFGGFKMSGNGREMGEFGLREYSEVKTVTVKIPQKNS |  |  |  | 220.0 µM

Source: article PMC9437101, “Curcumin-based-fluorescent probes targeting ALDH1A3 as a promising tool for glioblastoma precision surgery and early diagnosis” (Communications Biology, 2022)
